Laboratory results reported in US11434198B2, “Compounds and methods for the treatment of neurodegenerative diseases” (Resilio Therapeutics, LLC, priority 2016, dated 2022).

Test: pH stability of prodrugs of DFMO in PBS buffer
Format: physicochemical
Conditions: for intact prodrug lost over the next 24 hours: 24 hours following the initial phase; for decrease in the amount of intact, non-degraded prodrug over the first hour of incubation: LC/MS/MS
Protocol: The stability of prodrugs of DFMO to different pH conditions over time was assayed. Prodrugs were reconstituted in dimethylsulfoxide (DMSO), diluted into phosphate buffered saline (PBS) of different pH values, incubated for different lengths of time at room temperature, and then analyzed by LC/MS/MS for changes in the levels of each prodrug. […] Following this initial phase, the (2)-prodrug was reasonably stable over the next 24 hours so that less than 20% of the intact prodrug was lost at pH 3 and 5, and about 60% of the intact material was lost at pH 8 over a day. […] Similar results were obtained with the other prodrugs tested.

stability of intact, non-degraded prodrug over time at different pH (in words) (PBS of different pH values, room temperature): slowly lost | intact prodrug lost over the next 24 hours (PBS pH 3, room temperature): less than 20% | decrease in the amount of intact, non-degraded prodrug over the first hour of incubation (PBS pH 3, room temperature): about 60% | intact prodrug lost over the next 24 hours (PBS pH 5, room temperature): less than 20% | decrease in the amount of intact, non-degraded prodrug over the first hour of incubation (PBS pH 5, room temperature): 30-35% | intact prodrug lost over the next 24 hours (PBS pH 8, room temperature): about 60% | decrease in the amount of intact, non-degraded prodrug over the first hour of incubation (PBS pH 8, room temperature): 30-35%
SMILES: CC(OC(=O)NCCCC(N)(C(=O)O)C(F)F)OC(=O)C(C)C (stereo not shown) [(2)-prodrug, 2-amino-2-(difluoromethyl)-5-[1-(2-methylpropanoyloxy)ethoxycarbonylamino]pentanoic acid]
